Read-outs that look alike come from different tables or passages of the source.
Columns and labels:
[1] = system: men exhibiting androgenetic alopecia of stage III to V according to the Hamilton classification; settings: for No. of hairs/per cm^2 (DE): mean ± standard deviation
Protocol: Pyridine-2,4-dicarboxylic acid was tested in the form of the Na double salt formulated at a concentration of 5% in an aqueous/alcoholic lotion.
The evaluation of the effectiveness of the treatments was carried out by determining the total pilar density of hairs per cm^2 (DE) using the phototrichogram technique. This examination was carried out before treatment (M0) and after 3 months of treatment (M3).

proline hydroxylase = settings: K. Majamaa et al., Eur. J. Biochem., 138, 1984, 239-245; cited from earlier work
[2] = system: men exhibiting androgenetic alopecia of stage III to V according to the Hamilton classification; experiment: 1st study: in vivo activity, total pilar density of hairs per cm^2 (DE) by phototrichogram; parameters: species or system human; settings: for No. of hairs/per cm^2 (DE): mean ± standard deviation
Excerpt: It was studied at a concentration of 2%, formulated in a ternary lotion based on propylene glycol, ethanol and water.

Question: What does the source list for `O=C([O-])c1ccnc(C(=O)[O-])c1.[Na+].[Na+]` [Na disalt of Pyridine-2,4-dicarboxylic acid]?
Answer: hair loss (decrease in total density) compared with placebo areas, times smaller ([1]; 5% lotion, 3 months, versus placebo areas): 4 times; No. of hairs/per cm^2 (DE) ([1]; M0, before treatment, scalp area to receive 5% aqueous/alcoholic lotion, 22 men): 249 ± 50 hairs/per cm^2; No. of hairs/per cm^2 (DE) ([1]; M3, after 3 months, 5% aqueous/alcoholic lotion, 30 μl once daily, 5 days per week, topical on scalp): 246 ± 50 hairs/per cm^2; DE variation (%) ([1]; mean of the variation at M3 with respect to M0, 5% lotion, 30 μl once daily, 5 days per week, 3 months): −0.97%

Question: For `O=C(O)c1ccc(C(=O)O)nc1` [pyridine-2,5-dicarboxylic acids, pyridine-2,5-dicarboxylic acid], which “inhibition of proline hydroxylase (in words)” value (proline hydroxylase) is on record?
Answer: Its value is “very weak inhibitors”.

Question: For `O=C(O)c1ccnc(C(=O)O)c1` [Pyridine-2,4-dicarboxylic acid], which “change of total density of treated areas (in words)” value ([2]; 2% lotion, 3 months, placebo areas do not change) is on record?
Answer: The value was “increase in the total density”.

Question: And the “No. of hairs/per cm^2 (DE)” value ([2]; M0, before treatment, scalp area to receive 2% lotion (propylene glycol, ethanol, water), 25 men)?
Answer: The value was 213 ± 45 hairs/per cm^2.

Question: And the “No. of hairs/per cm^2 (DE)” value ([2]; M3, after 3 months, 2% lotion, 30 μl once daily, 5 days per week, topical on scalp)?
Answer: The value was 224 ± 53 hairs/per cm^2.

Question: What about the “DE variation (%)” value ([2]; M3 with respect to M0, 2% lotion, 30 μl once daily, 5 days per week, 3 months) of the same compound?
Answer: The value was 4.4%.

Question: What about the “inhibition of proline hydroxylase (in words)” value (proline hydroxylase) of the same compound?
Answer: The value was “very weak inhibitors”.

Source: US7598278B2, “Administration of pyridinedicarboxylic acid compounds for stimulating or inducing the growth of human keratinous fibers and/or arresting their loss” (L'Oreal, priority 2002, dated 2009)
